Source: the RepoRT retention time repository

Assay: Waters ACQUITY UPLC BEH C18, 100 × 2.1 mm, 1.7 µm, 40 °C, 0.3 to 0.4 mL/min, estimated dead time 0.63 min; A: water + 0.1% formic acid; B: methanol + 0.1% formic acid; gradient (min/%B) 0/0.5 0.1/0.5 10/80 10.1/99.5 12/99.5
Settings: stereoisomer not certain

Row | Compound | LC retention time [min]
1 | CC1(C)CCC2(C(=O)OC3OC(CO)C(O)C(O)C3O)CCC3(C)C(=CCC4C5(C)CCC(OC6OC(C(=O)O)C(O)C(O)C6OC6OC(CO)C(O)C(O)C6O)C(C)(C)C5CCC43C)C2C1 (stereo not drawn) | 6.18
2 | O=C(O)c1cc2c(c3c1c([N+](=O)[O-])cc1ccccc13)OCO2 | 7.55
3 | CCCCCCCCC=CCCCCCCCC(=O)OCC(O)COP(=O)([O-])OCC[NH3+] (stereo not drawn) | 10.2
4 | COc1cc(CC2COC(=O)C2Cc2ccc(O)c(OC)c2)ccc1O (stereo not drawn) | 5.96
5 | CC(C)=CCCC(C)(O)C1CCC2(C)C1C(O)CC1C3(C)CCC(OC4OC(CO)C(O)C(O)C4O)C(C)(C)C3CCC12C (stereo not drawn) | 9.84
6 | COc1cc(C(O)C(CO)Oc2c(OC)cc(-c3cc(=O)c4c(O)cc(O)cc4o3)cc2OC)ccc1O (stereo not drawn) | 6.2
7 | C=CC1C(OC2OC(CO)C(O)C(O)C2O)OC=C(C(=O)OC)C1CC=O (stereo not drawn) | 3.84
8 | CS(=O)CCCCN=C=S (stereo not drawn) | 3.69
9 | O=c1cc(-c2ccc(O)cc2)oc2c(C3OC(CO)C(O)C(O)C3O)c(O)c(C3OCC(O)C(O)C3O)c(O)c12 (stereo not drawn) | 3.41
10 | C=CCc1ccc(O)c(-c2cc(CC=C)ccc2O)c1 | 9.21
11 | COc1cc(C=CC(=O)NCCCCN=C(N)N)cc(OC)c1O | 3.27
12 | CC1(C)CC2C3=CCC4C5(C)CCC(OC6OC(C(=O)O)C(O)C(O)C6OC6OC(CO)C(O)C(O)C6OC6OC(CO)C(O)C(O)C6O)C(C)(CO)C5CCC4(C)C3(C)CCC2(C)CC1OC1OCC(O)C(O)C1O (stereo not drawn) | 5.5
13 | COc1cc2c(cc1O)CC1c3c(cc(O)c(OC)c3-2)CCN1C (stereo not drawn) | 3.35
14 | COc1ccc2c(c[n+](C)c3c4cc5c(cc4ccc23)OCO5)c1OC | 5.3
15 | CC(CCC1(O)OC2CC3C4CCC5CC(OC6OC(CO)C(O)C(O)C6OC6OC(CO)C(O)C(O)C6O)C(O)CC5(C)C4CCC3(C)C2C1C)COC1OC(CO)C(O)C(O)C1O (stereo not drawn) | 4.64
16 | CC1(C)CC(=O)C2(C)CCC3(C)C(=CCC4C5(C)CCC(OC6OC(C(=O)O)C(O)C(O)C6OC6OC(CO)C(O)C(O)C6O)C(C)(CO)C5CCC43C)C2C1 (stereo not drawn) | 7.84

Row | Compound | LC retention time [min]
17 | CCC(C)C(NC(=O)C(N)Cc1ccccc1)C(=O)O (stereo not drawn) | 3.79
18 | CCCCCC=CCC=CCCCCCCCC(=O)OCC(O)COP(=O)([O-])OCC[N+](C)(C)C (stereo not drawn) | 9.31
19 | CC(C)=CCc1cc(C=CC(=O)c2ccc(O)cc2O)ccc1O | 8.61
20 | CCC1=NC2CC3(C(=O)N(OC)c4ccccc43)C3CC1C2CO3 (stereo not drawn) | 3.99
21 | COc1cc2ccc(=O)oc2c(OC)c1O | 4.28
22 | CC1OC(OC2C(OC3C(OC4CCC5(C)C(CCC6(C)C5CC=C5C7CC(C)(C)C(OC8OC(C)C(O)C(O)C8O)CC7(C)CCC56C)C4(C)CO)OC(C(=O)O)C(O)C3O)OC(C(=O)O)C(O)C2O)C(O)C(O)C1O (stereo not drawn) | 5.68
23 | O=C(O)CC(=O)OCC1OC(Oc2c(-c3ccc(O)c(O)c3)oc3cc(OC4OC(CO)C(O)C(O)C4O)cc(O)c3c2=O)C(O)C(O)C1O (stereo not drawn) | 3.11
24 | COc1ccc(-c2cc(=O)c3c(O)cc(O)cc3o2)cc1O | 6.78
25 | OCC1OC(Oc2cc3c(OC4OC(CO)C(O)C(O)C4O)cc(O)cc3[o+]c2-c2ccc(O)cc2)C(O)C(O)C1O (stereo not drawn) | 2.71
26 | CS(=O)C=CCCN=C=S (stereo not drawn) | 3.77
27 | COc1c2c(cc3c(-c4ccc5c(c4)OCO5)c4c(cc13)C(=O)OC4)OCO2 | 8.93
28 | CN(C)Cc1c[nH]c2ccccc12 | 3.06
29 | O=CC=Cc1ccc(O)cc1 | 4.53
30 | CCC1CC2CN3CCC4(O)C(=Nc5ccc(OC)cc54)C(C(=O)OC)(C2)C13 (stereo not drawn) | 4.01
31 | CS(=O)CCCCCCCCC#N (stereo not drawn) | 3.03
32 | CC1OC(OC2CCC3(C)C(CCC4(C)C3C=CC35OCC6(CCC(C)(C)CC63)C(O)CC45C)C2(C)CO)C(O)C(OC2OC(CO)C(O)C(O)C2O)C1O (stereo not drawn) | 8.25

The next lines start with the values.

Row | LC retention time [min] | Compound
33 | 4.9 | COc1cc(-c2cc(=O)c3c(O)cc(OC4OC(C(=O)O)C(O)C(O)C4OC4OC(COC(=O)C=Cc5ccc(O)cc5)C(O)C(O)C4O)cc3o2)cc(OC)c1O (stereo not drawn)
34 | 5.29 | COc1ccc(CCNC(=O)C=Cc2ccc(O)c(OC)c2)cc1O
35 | 7.62 | CC1OC(OC2C(OC3C(OC4CCC5(C)C(CCC6(C)C5CC=C5C7CC(C)(C)CC(=O)C7(C)CCC56C)C4(C)CO)OC(C(=O)O)C(O)C3O)OC(CO)C(O)C2O)C(O)C(O)C1O (stereo not drawn)
36 | 3.46 | O=C(OC1Cc2c(O)cc(O)cc2OC1c1cc(O)c(O)c(O)c1)c1cc(O)c(O)c(O)c1 (stereo not drawn)
37 | 7.75 | O=c1cc(-c2ccccc2)oc2ccccc12
38 | 3.12 | OCC1OC(Oc2cc3c(O)cc(O)cc3[o+]c2-c2ccc(O)cc2)C(O)C(O)C1O (stereo not drawn)
39 | 5.81 | Oc1ccc(C=Cc2cc(O)cc3c2C(c2cc(O)cc(O)c2)C(c2ccc(O)cc2)O3)cc1 (stereo not drawn)
40 | 1.79 | NC(Cc1ccc(O)cc1)C(=O)O (stereo not drawn)
41 | 2.02 | CC(C)CC(N)C(=O)NC(C)C(=O)O (stereo not drawn)
42 | 4.76 | COc1cc(C=CC=O)ccc1O
43 | 4.18 | O=c1cc(-c2ccc(O)cc2)oc2cc(OC3OC(CO)C(O)C(O)C3O)cc(O)c12 (stereo not drawn)
44 | 3.88 | CC(=O)OC1CC(COC2OC(CO)C(O)C(O)C2O)CNC12OC1CC3C4CCC5CC(OC6OC(CO)C(OC7OC(CO)C(OC8OC=C(O)C(O)C8O)C(O)C7OC7OC(CO)C(O)C(O)C7O)C(O)C6O)CCC5(C)C4CCC3(C)C1C2C (stereo not drawn)
45 | 4.21 | O=c1cc(-c2ccc(O)cc2)oc2cc(O)c(C3OCC(O)C(O)C3OC3OC(CO)C(O)C(O)C3O)c(O)c12 (stereo not drawn)
46 | 5.42 | COc1ccc(C2CC(=O)c3c(O)cc(OC4OC(CO)C(O)C(O)C4OC4OC(C)C(O)C(O)C4O)cc3O2)cc1 (stereo not drawn)
47 | 5.37 | COc1cc(-c2oc3cc(O)cc(O)c3c(=O)c2O)cc(O)c1O
48 | 7.38 | CC1OC(OC2C(OC3CCC4(C)C(=CCC5C4CCC4(C)C5CC5OC6(CCC(COC(=O)CC(C)(O)CC(=O)O)CO6)C(C)C54)C3)OC(CO)C(O)C2O)C(O)C(O)C1O (stereo not drawn)
49 | 5.19 | COc1cc(C=CC(=O)NCCCCNC(=O)C=Cc2ccc(O)c(OC)c2)ccc1O
50 | 3.94 | C=CC1C(OC2OC(CO)C(O)C(O)C2O)OC=C(C(=O)O)C1CC1NCCc2c1[nH]c1ccccc21 (stereo not drawn)
51 | 3.59 | O=c1cc(-c2ccc(O)c(O)c2)oc2cc(O)c(C3OC(CO)C(O)C(O)C3O)c(O)c12 (stereo not drawn)
52 | 10.3 | CCCCCCCCC1OC1CCCCCCCC(=O)O (stereo not drawn)
53 | 4.57 | CC(=O)OCC1OC(Oc2ccc3c(=O)c(-c4ccc(O)cc4)coc3c2)C(O)C(O)C1O (stereo not drawn)
54 | 3.15 | COc1cc(-c2[o+]c3cc(O)cc(O)c3cc2OC2OC(CO)C(O)C(O)C2O)ccc1O (stereo not drawn)
55 | 2.93 | O=c1cc[nH]c2ccccc12

Row | LC retention time [min] | Compound
56 | 10.1 | CCCCCCCCC=CCCCCCCCC(=O)OCC(O)COP(=O)([O-])OCC[N+](C)(C)C (stereo not drawn)
57 | 4.13 | O=c1cc(-c2ccc(O)cc2)oc2cc(OC3OC(CO)C(O)C(O)C3O)c(O)c(O)c12 (stereo not drawn)
58 | 9.77 | CC1(C)CCC2(C(=O)O)CCC3(C)C(=CCC4C5(C)CC(O)C(O)C(C)(C)C5CCC43C)C2C1 (stereo not drawn)
59 | 1.87 | CC(C)CC(N)C(=O)O (stereo not drawn)
60 | 2.49 | CS(=O)CCCCCCCCN (stereo not drawn)
61 | 2.22 | NCCCCNC(=O)C=Cc1ccc(O)c(O)c1
62 | 4.48 | CC1OC(Oc2c(-c3ccc(O)c(O)c3)oc3cc(OC4OC(CO)C(O)C(O)C4O)cc(O)c3c2=O)C(OC2OC(COC(=O)C=Cc3ccc(O)cc3)C(O)C(O)C2O)C(O)C1O (stereo not drawn)
63 | 5.77 | CCC1C(=O)OCc2c1cc1n(c2=O)Cc2cc3ccccc3nc2-1 (stereo not drawn)
64 | 4.21 | O=C(C=Cc1ccc(O)cc1)OCC1OC(OC2C(c3c(O)cc4oc(-c5ccc(O)cc5)cc(=O)c4c3O)OC(CO)C(O)C2O)C(O)C(O)C1O (stereo not drawn)
65 | 4.72 | CC1CCC2(NC1)OC1CC3C4CC=C5CC(OC6OC(CO)C(OC7OC(CO)C(O)C(OC8OCC(O)C(O)C8O)C7OC7OC(CO)C(O)C(O)C7O)C(O)C6O)CCC5(C)C4CCC3(C)C1C2C (stereo not drawn)
66 | 2.75 | CCN(CC)CCOC(=O)c1ccc(N)cc1
67 | 1.93 | Nc1nc2c(ncn2C2OC(CO)C(O)C2O)c(=O)[nH]1 (stereo not drawn)
68 | 5.27 | C=CC1C(OC2OC(CO)C(O)C(O)C2O)OC=C2C(=O)N3Cc4cc5ccccc5nc4C3CC21 (stereo not drawn)
69 | 7.75 | CC(C)=CCc1cc(C2CC(=O)c3c(O)cc(O)cc3O2)cc(O)c1O (stereo not drawn)
70 | 3.92 | CC1OC(OCC2OC(Oc3cc(O)c4c(c3)OC(c3ccc(O)c(O)c3)CC4=O)C(O)C(O)C2O)C(O)C(O)C1O (stereo not drawn)
71 | 4.99 | CC(CCC1(O)OC2CC3C4CC=C5CC(OC6OC(CO)C(O)C(OC7OC(CO)C(O)C(O)C7O)C6OC6OC(C)C(O)C(O)C6O)CCC5(C)C4CCC3(C)C2C1C)COC1OC(CO)C(O)C(O)C1O (stereo not drawn)
72 | 7.49 | COc1c(C=CC(=O)c2ccc(O)c(O)c2)ccc(O)c1CC=C(C)C
73 | 6.14 | COc1cc(-c2oc3cc(O)cc(O)c3c(=O)c2O)ccc1O
74 | 4.58 | CCCCCCCC(O)SCC(NC(=O)CCC(N)C(=O)O)C(=O)NCC(=O)O (stereo not drawn)
75 | 3.2 | C=CC1C(OC2OC(CO)C(O)C(O)C2O)OC=C2C(=O)OCCC21O (stereo not drawn)
76 | 4.6 | O=C(C=Cc1ccc(O)c(O)c1)OC1C(O)CC(O)(C(=O)O)CC1O (stereo not drawn)
77 | 4.48 | CC1OC(OC2C(c3c(O)cc4oc(-c5ccc(O)c(O)c5)cc(=O)c4c3O)OC(CO)C(O)C2O)C(O)C(O)C1O (stereo not drawn)
78 | 5.17 | COc1cc(C(O)C(CO)Oc2c(OC)cc(-c3cc(=O)c4c(O)cc(OC5OC(COC(=O)CC(=O)O)C(O)C(O)C5O)cc4o3)cc2OC)ccc1O (stereo not drawn)
